Source: patent publication US8247211B2, “Glycopeptide antibiotics” (American Cyanamid Company, priority 2001, dated 2012)
Converted amounts (≈) assume the structure as drawn.

What was measured:
Test in all cases: In vitro antibacterial evaluation: minimum inhibitory concentration (MIC), broth dilution method
Format in all cases: cell-based
[1] = tested on: Streptococcus sp.
Protocol: (§1) The minimum inhibitory concentration (MIC), the lowest concentration of the antibiotic which inhibits growth of the test organism, is determined by the broth dilution method using Muller-Hinton II […] (Baltimore Biological Laboratories) following the recommendations of the National Committee for Clinical Laboratory Standards [Methods for dilution antimicrobial susceptibility tests for bacteria that grow aerobically, approved standard M7-A2, National Committee for Clinical Laboratory Standards, Villanova, Pa].
(§2) An inoculum level of 5×10^5 CFU/mL, and a range of antibiotic concentrations (64-0.06 μg/mL) is used. […] The test organisms include a spectrum of Gram-positive bacteria comprised of Staphylococcus sp., Streptococcus sp. and Enterococcus sp. These organisms include recent clinical isolates that are resistant to methicillin, penicillin and/or vancomycin.

[2] = tested on: Staphylococcus sp.
Protocol: as §1, §2

[3] = tested on: Enterococcus sp.
Protocol: as §1, §2

[4] = tested on: Escherichia coli
Protocol: as §1, §2

[5] = broth dilution, 5×10^5 CFU/mL, 18 hours at 35° C.
[6] = strain ATCC 29213, broth dilution, 18 hours at 35° C.
[7] = strain GC 1131, broth dilution, 18 hours at 35° C.
[8] = strain GC 3051, broth dilution, 18 hours at 35° C.
[9] = strain GC 3053, broth dilution, 18 hours at 35° C.
[10] = strain GC 4541, broth dilution, 18 hours at 35° C.
[11] = strain GC 4542, broth dilution, 18 hours at 35° C.
[12] = strain GC 4543, broth dilution, 18 hours at 35° C.
[13] = strain GC 4544, broth dilution, 18 hours at 35° C.
[14] = strain GC 4545, broth dilution, 18 hours at 35° C.
[15] = strain GC 4546, broth dilution, 18 hours at 35° C.
[16] = strain GC 4547, broth dilution, 18 hours at 35° C.
[17] = strain GC 4548, broth dilution, 18 hours at 35° C.
[18] = strain GC 4549, broth dilution, 18 hours at 35° C.
[19] = strain GC 4551, broth dilution, 18 hours at 35° C.
[20] = strain GC 6257, broth dilution, 18 hours at 35° C.
[21] = 5×10^5 CFU/mL, 18 hours at 35° C.

SMILES: CC(c1ccccc1)C1NC(=O)CNC(=O)C(CO)NC(=O)C(C(O)C2CNC(=N)N2C2OC(CO)C(O)C(O)C2O)NC(=O)C(C(O)C2CNC(=N)N2)NC(=O)C(Cc2ccc(OC3OC(CO)C(OC4OC5COC(CCc6ccccc6)OC5C(O)C4O)C(O)C3O)cc2)NC1=O (stereo not shown) [Example 124]
- MIC Streptococcus agalactiae (GC 4564) [1, 5]: 1 mg/L (≈ 0.708 µM)
- MIC Streptococcus pneumoniae (GC 1894) [1, 5]: <0.06 mg/L
- MIC Streptococcus pneumoniae (GC 4565) [1, 5]: <0.06 mg/L
- MIC Streptococcus pneumonine (ATCC 6301) [1, 5]: <0.06 mg/L
- MIC Streptococcus pyogenes (GC 4563) [1, 5]: 0.12 mg/L (≈ 0.085 µM)
- MIC Staphylococcus aureus (ATCC 29213) ([2]; strain ATCC 29213): 2 mg/L (≈ 1.42 µM)
- MIC Staphylococcus aureus (ATCC 29213) [2, 6]: 2 mg/L (≈ 1.42 µM)
- MIC Staphylococcus aureus (GC 1131) ([2]; strain GC 1131): 2 mg/L (≈ 1.42 µM)
- MIC Staphylococcus aureus (GC 1131) [2, 7]: 2 mg/L (≈ 1.42 µM)
- MIC Staphylococcus aureus (GC 3051) ([2]; strain GC 3051): 2 mg/L (≈ 1.42 µM)
- MIC Staphylococcus aureus (GC 3051) [2, 8]: 2 mg/L (≈ 1.42 µM)
- MIC Staphylococcus aureus (GC 3053) ([2]; strain GC 3053): 2 mg/L (≈ 1.42 µM)
- MIC Staphylococcus aureus (GC 3053) [2, 9]: 2 mg/L (≈ 1.42 µM)
- MIC Staphylococcus aureus (GC 4541) ([2]; strain GC 4541): 2 mg/L (≈ 1.42 µM)
- MIC Staphylococcus aureus (GC 4541) [2, 10]: 2 mg/L (≈ 1.42 µM)
- MIC Staphylococcus aureus (GC 4542) ([2]; strain GC 4542): 1 mg/L (≈ 0.708 µM)
- MIC Staphylococcus aureus (GC 4542) [2, 11]: 1 mg/L (≈ 0.708 µM)
- MIC Staphylococcus aureus-SMITH (GC 4543) ([2]; strain GC 4543, 18 hours at 35° C.): 2 mg/L (≈ 1.42 µM)
- MIC Staphylococcus aureus-SMITH (GC 4543) [2, 12]: 2 mg/L (≈ 1.42 µM)
- MIC Staphylococcus aureus (GC 4544) ([2]; strain GC 4544): 2 mg/L (≈ 1.42 µM)
- MIC Staphylococcus aureus (GC 4544) [2, 13]: 2 mg/L (≈ 1.42 µM)
- MIC Staphylococcus aureus (GC 4545) ([2]; strain GC 4545): 2 mg/L (≈ 1.42 µM)
- MIC Staphylococcus aureus (GC 4545) [2, 14]: 2 mg/L (≈ 1.42 µM)
- MIC Staphylococcus haemolyticus (GC 4546) ([2]; strain GC 4546): 2 mg/L (≈ 1.42 µM)
- MIC Staphylococcus haemolyticus (GC 4546) [2, 15]: 2 mg/L (≈ 1.42 µM)
- MIC Coagulase Negative Staphylococcus (GC 4547) ([2]; strain GC 4547): 2 mg/L (≈ 1.42 µM)
- MIC Coagulase Negative Staphylococcus (GC 4547) [2, 16]: 2 mg/L (≈ 1.42 µM)
- MIC Coagulase Negative Staphylococcus (GC 4548) ([2]; strain GC 4548): 1 mg/L (≈ 0.708 µM)
- MIC Coagulase Negative Staphylococcus (GC 4548) [2, 17]: 1 mg/L (≈ 0.708 µM)
- MIC Coagulase Negative Staphylococcus (GC 4549) ([2]; strain GC 4549): 1 mg/L (≈ 0.708 µM)
- MIC Coagulase Negative Staphylococcus (GC 4549) [2, 18]: 1 mg/L (≈ 0.708 µM)
- MIC Coagulase Negative Staphylococcus (GC 4551) ([2]; strain GC 4551): 2 mg/L (≈ 1.42 µM)
- MIC Coagulase Negative Staphylococcus (GC 4551) [2, 19]: 2 mg/L (≈ 1.42 µM)
- MIC Coagulase Negative Staphylococcus (GC 6257) ([2]; strain GC 6257): 1 mg/L (≈ 0.708 µM)
- MIC Coagulase Negative Staphylococcus (GC 6257) [2, 20]: 1 mg/L (≈ 0.708 µM)
- MIC Enterococccus avium (GC 4558) [3, 5]: 0.25 mg/L (≈ 0.177 µM)
- MIC Enterococccus faecalis (ATCC 29212) [3, 5]: 4 mg/L (≈ 2.83 µM)
- MIC Enterococccus faecalis (GC 2691) [3, 5]: 4 mg/L (≈ 2.83 µM)
- MIC Enterococccus faecalis (GC 3059) [3, 5]: 4 mg/L (≈ 2.83 µM)
- MIC Enterococccus faecalis (GC 4552) [3, 5]: 4 mg/L (≈ 2.83 µM)
- MIC Enterococccus faecalis (GC 4553) [3, 5]: 4 mg/L (≈ 2.83 µM)
- MIC Enterococccus faecalis (GC 4554) [3, 5]: 4 mg/L (≈ 2.83 µM)
- MIC Enterococccus faecalis (GC 6189) [3, 5]: 4 mg/L (≈ 2.83 µM)
- MIC Enterococccus faecium (GC 2243) [3, 5]: 4 mg/L (≈ 2.83 µM)
- MIC Enterococccus faecium (GC 4556) [3, 5]: 4 mg/L (≈ 2.83 µM)
- MIC Enterococccus faecium (GC 4557) [3, 5]: 1 mg/L (≈ 0.708 µM)
- MIC Enterococcus faecalis (GC 2242) [3, 5]: 4 mg/L (≈ 2.83 µM)
- MIC Escherichia coli (ATCC 25922) [4, 21]: 32 mg/L (≈ 22.7 µM)
- MIC Escherichia coli (GC 4559) [4, 21]: 32 mg/L (≈ 22.7 µM)
- MIC Escherichia coli (GC 4560) [4, 21]: 1 mg/L (≈ 0.708 µM)

SMILES: Cc1cc(C2OCC3OC(OC4C(CO)OC(Oc5ccc(CC6NC(=O)C(C(C)c7ccccc7)NC(=O)CNC(=O)C(CO)NC(=O)C(C(O)C7CNC(=N)N7C7OC(CO)C(O)C(O)C7O)NC(=O)C(C(O)C7CNC(=N)N7)NC6=O)cc5)C(O)C4O)C(O)C(O)C3O2)ccc1[N+](=O)[O-] (stereo not drawn) [Example 151, Cyclo[glycyl-β-methylphenylalanyl-O-[4-O-[4,6-O-(3-methyl-4-nitrobenzylidene)hexonyranosyl]hexopyranosyl]tyrosyl-3-(2-iminoimidazolidin-4-yl)seryl-3-(3-hexopyranosyl-2-iminoimidazolidin-4-yl)serylseryl]]
- MIC Streptococcus pneumoniae (ATCC 6301) ([1]; strain ATCC 6301): 1 mg/L (≈ 0.693 µM)
- MIC Streptococcus pneumoniae (GC 1894) ([1]; strain GC 1894): 0.5 mg/L (≈ 0.347 µM)
- MIC Streptococcus pyogenes (GC 4563) ([1]; strain GC 4563): 2 mg/L (≈ 1.39 µM)
- MIC Streptococcus agalactiae (GC 4564) ([1]; strain GC 4564): 4 mg/L (≈ 2.77 µM)
- MIC Streptococcus pneumoniae (GC 4565) ([1]; strain GC 4565): 1 mg/L (≈ 0.693 µM)
- MIC Coagulase Negative Staphylococcus (GC 4547) [2, 5]: 4 mg/L (≈ 2.77 µM)
- MIC Coagulase Negative Staphylococcus (GC 4548) [2, 5]: 4 mg/L (≈ 2.77 µM)
- MIC Coagulase Negative Staphylococcus (GC 4549) [2, 5]: 2 mg/L (≈ 1.39 µM)
- MIC Coagulase Negative Staphylococcus (GC 4551) [2, 5]: 8 mg/L (≈ 5.55 µM)
- MIC Coagulase Negative Staphylococcus (GC 6257) [2, 5]: 2 mg/L (≈ 1.39 µM)
- MIC Staphylococcus aureus (ATCC 29213) [2, 5]: 8 mg/L (≈ 5.55 µM)
- MIC Staphylococcus aureus (GC 1131) [2, 5]: 8 mg/L (≈ 5.55 µM)
- MIC Staphylococcus aureus (GC 3051) [2, 5]: 8 mg/L (≈ 5.55 µM)
- MIC Staphylococcus aureus (GC 3053) [2, 5]: 16 mg/L (≈ 11.1 µM)
- MIC Staphylococcus aureus (GC 4541) [2, 5]: 4 mg/L (≈ 2.77 µM)
- MIC Staphylococcus aureus (GC 4542) [2, 5]: 8 mg/L (≈ 5.55 µM)
- MIC Staphylococcus aureus (GC 4544) [2, 5]: 8 mg/L (≈ 5.55 µM)
- MIC Staphylococcus aureus (GC 4545) [2, 5]: 4 mg/L (≈ 2.77 µM)
- MIC Staphylococcus aureus-SMITH (GC 4543) [2, 5]: 8 mg/L (≈ 5.55 µM)
- MIC Staphylococcus haemolyticus (GC 4546) [2, 5]: 2 mg/L (≈ 1.39 µM)
- MIC Staphylococcus aureus (ATCC 29213) [2, 6]: 8 mg/L (≈ 5.55 µM)
- MIC Staphylococcus aureus (GC 1131) [2, 7]: 8 mg/L (≈ 5.55 µM)
- MIC Staphylococcus aureus (GC 3051) [2, 8]: 8 mg/L (≈ 5.55 µM)
- MIC Staphylococcus aureus (GC 3053) [2, 9]: 16 mg/L (≈ 11.1 µM)
- MIC Staphylococcus aureus (GC 4541) [2, 10]: 4 mg/L (≈ 2.77 µM)
- MIC Staphylococcus aureus (GC 4542) [2, 11]: 8 mg/L (≈ 5.55 µM)
- MIC Staphylococcus aureus-SMITH (GC 4543) [2, 12]: 8 mg/L (≈ 5.55 µM)
- MIC Staphylococcus aureus (GC 4544) [2, 13]: 8 mg/L (≈ 5.55 µM)
- MIC Staphylococcus aureus (GC 4545) [2, 14]: 4 mg/L (≈ 2.77 µM)
- MIC Staphylococcus haemolyticus (GC 4546) [2, 15]: 2 mg/L (≈ 1.39 µM)
- MIC Coagulase Negative Staphylococcus (GC 4547) [2, 16]: 4 mg/L (≈ 2.77 µM)
- MIC Coagulase Negative Staphylococcus (GC 4548) [2, 17]: 4 mg/L (≈ 2.77 µM)
- MIC Coagulase Negative Staphylococcus (GC 4549) [2, 18]: 2 mg/L (≈ 1.39 µM)
- MIC Coagulase Negative Staphylococcus (GC 4551) [2, 19]: 8 mg/L (≈ 5.55 µM)
- MIC Coagulase Negative Staphylococcus (GC 6257) [2, 20]: 2 mg/L (≈ 1.39 µM)
- MIC Enterococcus faecalis (ATCC 29212) ([3]; strain ATCC 29212): 32 mg/L (≈ 22.2 µM)
- MIC Enterococcus faecalis (GC 2242) ([3]; strain GC 2242): 16 mg/L (≈ 11.1 µM)
- MIC Enterococcus faecium (GC 2243) ([3]; strain GC 2243): 32 mg/L (≈ 22.2 µM)
- MIC Enterococcus faecalis (GC 2691) ([3]; strain GC 2691): 32 mg/L (≈ 22.2 µM)
- MIC Enterococcus faecalis (GC 3059) ([3]; strain GC 3059): 32 mg/L (≈ 22.2 µM)
- MIC Enterococcus faecalis (GC 4552) ([3]; strain GC 4552): 32 mg/L (≈ 22.2 µM)
- MIC Enterococcus faecalis (GC 4553) ([3]; strain GC 4553): 32 mg/L (≈ 22.2 µM)
- MIC Enterococcus faecalis (GC 4554) ([3]; strain GC 4554): 32 mg/L (≈ 22.2 µM)
- MIC Enterococcus faecium (GC 4556) ([3]; strain GC 4556): 32 mg/L (≈ 22.2 µM)
- MIC Enterococcus faecium (GC 4557) ([3]; strain GC 4557): 8 mg/L (≈ 5.55 µM)
- MIC Enterococcus avium (GC 4558) ([3]; strain GC 4558): 32 mg/L (≈ 22.2 µM)
- MIC Enterococcus faecalis (GC 6189) ([3]; strain GC 6189): 64 mg/L (≈ 44.4 µM)
- MIC Escherichia coli (ATCC 25922) ([4]; strain ATCC 25922): >64 mg/L
- MIC Escherichia coli (GC 4559) ([4]; strain GC 4559): >64 mg/L
- MIC Escherichi coli (GC 4560) ([4]; strain GC 4560): 2 mg/L (≈ 1.39 µM)
